The test system of test [1] is P-IKKα levels in L363 cells. Put plainly: Biological Assay B: effect of compounds on P-IKKα levels in L363 cells. The class given is cell-based. The settings on record: Homo sapiens, L-363, BAFF stimulated, 2 hr treatment, averaged values, read-out: IKKα Cellular IC50. How it is done: Effect of Compounds on P-IKKα Levels in L363 Cells
All compounds tested were dissolved in DMSO and further dilutions were made in culture medium. Final DMSO concentration was 1% (v/v) in cell assays. The human L363 cells (ATCC) were cultured in RPMI 1640 medium supplemented with GlutaMax and 10% fetal calf serum (PAA). Cells were routinely maintained at densities of 0.2×10^6 cells per ml—1×10^6 cells per ml at 37° C. in a humidified 5% CO2 atmosphere. Cells were passaged twice a week splitting back to obtain the low density. Cells were seeded in 96 well plates (Nunc 167008) at 2×10^6 per ml media in a volume of 75 μl per well plus 25 μl 1 μg/ml recombinant human B-cell activating factor (BAFF/BLyS/TNFSF13B). Seeded cells were incubated at 37° C. in a humidified 5% CO2 atmosphere for 24 hr. Drugs and/or solvents were added (20 μl) to a final volume of 120 μl. Following 2 hr treatment plates were removed from the incubator and cell lysis was achieved by the addition of 30 μl 5× lysis buffer followed by shaking on a plate shaker at 4° C. for 10 min. At the end of this incubation lysed cells were centrifuged at 800×g for 20 min at 4° C. and the lysate was assessed for P-IKKα levels by sandwich immuno-assay carried out in anti-rabbit antibody coated Mesoscale plates. Within an experiment, the results for each treatment were the mean of 2 replicate wells. For initial screening purposes, compounds were tested using an 8 point dilution curve (serial 1:3 dilutions). For each experiment, controls (containing MG132 and BAFF but no test drug) and a blank incubation (containing MG132 and BAFF and 10 μM ADS125117, a test concentration known to give full inhibition) were run in parallel. The blank incubation value was subtracted from all control and sample values. To determine the IC50 a sigmoidal curve was fitted to the plot of % inhibition of control P-IKKα levels versus Log10 compound concentration.

A further test has as its system L-363 cells. Put plainly: Biological Assay C: antiproliferative activity on L-363 cells (CellTiter-Glo). The class given is cell-based, human. The settings on record: Homo sapiens, L-363, 72 h, 72 hr treatment, averaged values. How it is done:
(§1) Determination of Antiproliferative Activity on LP-1, L-363 and JJN-3 Cells
(§2) All compounds tested were dissolved in DMSO and further dilutions were made in culture medium. Final DMSO concentration was 0.3% (v/v) in cell proliferation assays. Viability was assessed using CellTiter-Glo cell viability assay kit (Promega). The human LP-1, L-363 and JJN-3 cells (DSMZ) were cultured in RPMI 1640 medium supplemented with 2 mM L-glutamine, and 10% fetal calf serum (PAA). Cells were routinely kept as suspension cells at 37° C. in a humidified 5% CO2 atmosphere. Cells were passaged at a seeding density of 0.2×10^6/ml twice a week. Cells were seeded in black tissue culture treated 96-well plates (Perkin Elmer). Densities used for plating ranged from 2,000 to 6,000 cells per well in a total volume of 75 μl medium. After twenty four hours, drugs and/or solvents were added (25 μl) to a final volume of 100 μl. Following 72 hr of treatment plates were removed from the incubator and allowed to equilibrate to room temperature for approx 10 min. 100 ut CellTiter-Glo reagent was added to each well that was then covered (Perkin Elmer Topseal) and shaken on plate shaker for 10 min. Luminescence was measured on a HTS Topcount (Perkin Elmer). Within an experiment, the results for each treatment were the mean of 2 replicate wells. For initial screening purposes, compounds were tested using a 9 point dilution curve (serial 1:3 dilutions). For each experiment, controls (containing no drug) and a blank incubation (containing cells read at the time of compound addition) were run in parallel. The blank value was subtracted from all control and sample values. For each sample, the mean value for cell growth (in relative light units) was expressed as a percentage of the mean value for cell growth of the control.
(In ATP-based viability assays light output follows the ATP content of the culture.)

The target of test [2] is T1, Recombinant Human NF-kappaB-Inducing Kinase (NIK/MAP3K14) (Homo sapiens, UniProt Q99558). Put plainly: Biological Assay A: inhibition of recombinant human NIK/MAP3K14 activity (MSD, MBP substrate). The settings on record: 10 nM NIK, 25 μM ATP, 1 h at 25° C.; averaged over all measurements on all batches; read-out: Biochemical (MSD IC50). As to the method:
Inhibition of Recombinant Human NF-kappaB-Inducing Kinase (NIK/MAP3K14) Activity Assay buffer was 50 mM Tris pH 7.5 containing 1 mM EGTA (ethylene glycol tetraacetic acid), 1 mM DTT (dithiothreitol), 0.1 mM Na3VO4, 5 mM MgCl2, 0.01% Tween® 20. Assays were carried out in 384 well Mesoscale high binding plates which had been coated with myelin basic protein (MBP) and blocked with bovine serum albumin to prevent non-specific protein binding. All compounds tested were dissolved in dimethyl sulfoxide (DMSO) and further dilutions were made in assay buffer. Final DMSO concentration was 1% (v/v) in assays. Incubations consisted of compound (1% DMSO in control and blank wells), 25 μM Adenosine-5′-triphosphate (ATP), and 10 nM NIK/MAP3K14 substituting enzyme with buffer in the blank wells. Incubations were carried out for 1 h at 25° C. and were followed by washing and sequential incubation with rabbit anti-phospho-MBP and anti-rabbit Ig Sulfotag antibody before reading bound Sulfotag on a Mesoscale Discovery. Signal obtained in the wells containing blank samples was subtracted from all other wells and ICso's were determined by fitting a sigmoidal curve to % inhibition of control versus Log10 compound concentration.

Test [3] concerns the target T1, Recombinant Human NF-kappaB-Inducing Kinase (NIK/MAP3K14). Nature of the test: Biological Assay A2: inhibition of auto-phosphorylation of recombinant human NIK/MAP3K14 (AlphaScreen). The class given is biochemical. The conditions noted are these: 0.2 nM GST-tagged NIK, 25 microM ATP, 1 h at 25° C., averaged values. How it is done:
Inhibition of Auto-Phosphorylation of Recombinant Human NF-kappaB-Inducing Kinase (NIK/MAP3K14) Activity (AlphaScreen®)
NIK/MAP3K14 auto-phosphorylation activity was measured using the AlphaScreen® (αscreen) format (Perkin Elmer). All compounds tested were dissolved in dimethyl sulfoxide (DMSO) and further dilutions were made in assay buffer. Final DMSO concentration was 1% (v/v) in assays. Assay buffer was 50 mM Tris pH 7.5 containing 1 mM EGTA (ethylene glycol tetraacetic acid), 1 mM DTT (dithiothreitol), 0.1 mM Na3VO4, 5 mM MgCl2, 0.01% Tween® 20. Assays were carried out in 384 well Alphaplates (Perkin Elmer). Incubations consisted of compound, 25 microM Adenosine-5′-triphosphate (ATP), and 0.2 nM NIK/MAP3K14. Incubations were initiated by addition of GST-tagged NIK/MAP3K14 enzyme, carried out for 1 h at 25° C. and terminated by addition of stop buffer containing anti-phospho-IKK Ser176/180 antibody. Protein A Acceptor and Glutathione-Donor beads were added before reading using an EnVision® Multilabel Plate Reader (Perkin Elmer). Signal obtained in the wells containing blank samples was subtracted from all other wells and IC50's were determined by fitting a sigmoidal curve to % inhibition of control versus Log10 compound concentration.
On the technique in general: In Alpha technology, singlet oxygen from a donor bead excites a nearby acceptor bead.

A further test deals with JJN-3 cells. Put plainly: Biological Assay C: antiproliferative activity on JJN-3 cells (CellTiter-Glo). The settings on record: Homo sapiens, JJN-3, 72 h, 72 hr treatment, averaged values. The class given is cell-based, human. How it is done:
as §1, §2

In a further test the test system is LP-1 cells. Put plainly: Biological Assay C: antiproliferative activity on LP-1 cells (CellTiter-Glo). The class given is cell-based, human. The settings on record: Homo sapiens, LP-1, 72 h, 72 hr treatment, averaged values. As to the method:
as §1, §2

T1 sequence (Q99558 whole entry): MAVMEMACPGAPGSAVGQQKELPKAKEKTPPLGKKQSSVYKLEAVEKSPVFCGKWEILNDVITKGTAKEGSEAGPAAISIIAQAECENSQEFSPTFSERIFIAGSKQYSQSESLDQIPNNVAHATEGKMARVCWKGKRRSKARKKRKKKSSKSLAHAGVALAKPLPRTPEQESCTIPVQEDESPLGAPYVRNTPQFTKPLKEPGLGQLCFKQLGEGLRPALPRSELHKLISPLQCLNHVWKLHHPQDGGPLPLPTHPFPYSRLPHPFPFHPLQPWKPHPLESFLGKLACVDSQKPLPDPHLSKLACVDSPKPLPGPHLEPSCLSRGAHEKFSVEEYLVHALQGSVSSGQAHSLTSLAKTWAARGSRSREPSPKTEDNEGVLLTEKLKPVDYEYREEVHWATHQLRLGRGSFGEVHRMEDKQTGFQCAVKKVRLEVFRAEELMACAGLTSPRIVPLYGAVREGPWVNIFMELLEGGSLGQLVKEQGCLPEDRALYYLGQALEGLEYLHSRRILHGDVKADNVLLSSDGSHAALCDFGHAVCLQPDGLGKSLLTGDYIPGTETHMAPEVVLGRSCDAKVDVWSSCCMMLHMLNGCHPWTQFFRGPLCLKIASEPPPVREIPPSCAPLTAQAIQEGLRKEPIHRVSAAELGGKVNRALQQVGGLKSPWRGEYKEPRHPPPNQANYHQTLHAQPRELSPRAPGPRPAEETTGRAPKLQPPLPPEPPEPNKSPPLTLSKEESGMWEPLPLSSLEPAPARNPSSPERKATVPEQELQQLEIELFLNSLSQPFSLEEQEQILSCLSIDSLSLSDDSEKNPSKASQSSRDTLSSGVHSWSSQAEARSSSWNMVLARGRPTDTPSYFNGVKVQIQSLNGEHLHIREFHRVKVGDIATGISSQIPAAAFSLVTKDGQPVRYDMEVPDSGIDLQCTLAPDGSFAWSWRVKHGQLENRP

Broadly, the IC50 is the concentration that inhibits the measured activity by half. One may read the EC50 as the concentration at which the effect is half-maximal. Low readings indicate higher potency in that assay, high ones lower potency in that assay. As to `CC(C)(O)C#Cc1ccc2[nH]cc(-c3cn[nH]c3)c2c1` [Compound 1], the values for the IC50 in test [1], in test [2] and in test [3] were 122 nM, 28 nM and 22 nM, respectively. Moreover, the values for the EC50 in the test on L-363 cells, with JJN-3 cells and in the test on LP-1 cells were 245 nM, 432 nM and 320 nM, respectively.

With `CCn1cc(-c2c[nH]nc2N)c2cc(C#CC(C)(C)O)ccc21` [Compound 2], the IC50 in test [1] turned out to be 87 nM; in test [2], 44 nM; in test [3] it was 43 nM. Also, the values for the EC50 with L-363 cells, with JJN-3 cells and in the test with LP-1 cells were 990 nM, 733 nM and 1420 nM, respectively.

On to `CCn1cc(-c2c[nH]nc2C)c2cc(C#CC(C)(C)O)ccc21` [Compound 3], for which the IC50 in test [1] was determined as 139 nM; in test [2], 71 nM; in test [3] it was 35 nM. The EC50 is 3120 nM in the test on L-363 cells, 1860 nM with JJN-3 cells and 3160 nM with LP-1 cells.

`CCn1cc(-c2c[nH]nc2C(F)(F)F)c2cc(C#CC(C)(C)O)ccc21` [Compound 4]: the 50% inhibitory concentration (IC50) in test [2] turned out to be 581 nM; in test [3], 350 nM.

For `CC(C)(O)C#Cc1ccc2c(c1)c(-c1cn[nH]c1)cn2CC1CCOC1` (centres unmarked) [Compound 5], the IC50 in test [1] is 145 nM; in test [2], 38 nM; in test [3], 25 nM. Further, the EC50 in the test on L-363 cells came out at 1830 nM; in the test on JJN-3 cells, 1410 nM; with LP-1 cells, 1890 nM.

As for `CC(C)(O)C#Cc1ccc2c(c1)c(-c1cn[nH]c1)cn2CC1COC1` [Compound 6], the IC50 was found to be 73 nM in test [1], 6 nM in test [2] and 66 nM in test [3]. For the same molecule, the EC50 with L-363 cells came out at 704 nM; with JJN-3 cells, 1080 nM; with LP-1 cells, 1950 nM.

In the case of `COCCn1cc(-c2cn[nH]c2)c2cc(C#CC(C)(C)O)ccc21` [Compound 7], the IC50 in test [1] turned out to be 175 nM; in test [2], 11 nM; in test [3], 73 nM. Further, the results for the EC50 with L-363 cells, in the test with JJN-3 cells and with LP-1 cells were 1180 nM, 1410 nM and 2180 nM, respectively.

Take `CC(C)n1cc(-c2cn[nH]c2)c2cc(C#CC(C)(C)O)ccc21` [Compound 8]: the IC50 in test [1] came out at 18 nM; in test [2], 13 nM; in test [3] it was 14 nM. The results for the EC50 in the test on L-363 cells, in the test with JJN-3 cells and in the test with LP-1 cells were 221 nM, 218 nM and 219 nM, respectively.

Consider `CCn1cc(-c2cn[nH]c2)c2cc(C#CC(C)(C)O)ccc21` [Compound 9], for which the IC50 in test [1] is 54 nM; in test [2], 8 nM; in test [3], 43 nM. For the same molecule, the EC50 in the test on L-363 cells is 332 nM; in the test with JJN-3 cells, 418 nM; with LP-1 cells it was 298 nM.

On to `CC(C)(O)C#Cc1ccc2c(c1)c(-c1cn[nH]c1)cn2CC(C)(C)O` [Compound 10], for which the IC50 in test [1] worked out at 111 nM; in test [2] it was 38 nM; in test [3] it was 110 nM. For the same molecule, the results for the EC50 in the test with L-363 cells, in the test with JJN-3 cells and in the test with LP-1 cells were 759 nM, 723 nM and 947 nM, respectively.

As for `CC(C)(O)C#Cc1ccc2c(c1)c(-c1cn[nH]c1)cn2CCO` [Compound 11], the figures for the IC50 in test [1], in test [2] and in test [3] were 83 nM, 16 nM and 65 nM, respectively. Further, the values for the EC50 in the test with L-363 cells, in the test on JJN-3 cells and in the test with LP-1 cells were 340 nM, 394 nM and 483 nM, respectively.

`Cn1cc(-c2cn[nH]c2)c2cc(C#CC(C)(C)O)ccc21` [Compound 12]: the IC50 was 38 nM in test [1], 41 nM in test [2] and 65 nM in test [3]. In addition, the concentration for a half-maximal effect (EC50) was found to be 700 nM with L-363 cells, 754 nM in the test on JJN-3 cells and 769 nM in the test on LP-1 cells.

Consider `CC(O)(C#Cc1ccc2[nH]cc(-c3cn[nH]c3)c2c1)c1nccs1` (centres unmarked) [Compound 13], for which the IC50 in test [1] was 16 nM; in test [2], 9 nM; in test [3], 7 nM. Besides, the EC50 with L-363 cells turned out to be 5520 nM; in the test with JJN-3 cells it was 704 nM; in the test on LP-1 cells it was 9910 nM.

Take `OC1(C#Cc2ccc3[nH]cc(-c4cn[nH]c4)c3c2)CCCC1` [Compound 14]: the values for the IC50 in test [1], in test [2] and in test [3] were 300 nM, 30 nM and 28 nM, respectively. The EC50 with L-363 cells was determined as 4050 nM; with JJN-3 cells, 2200 nM; in the test on LP-1 cells, 5440 nM.

The values are drawn from patent publication US9981962B2, “Pyrazole derivatives as NIK inhibitors” (Janssen Pharmaceutica NV, priority 2014, dated 2018).
